The test system of series [1] is PC cells (primary cardiac cells). Kind of series: In vitro cytotoxicity, MTT bioassay. The format is cell-based, Wistar rats. Conditions: 1–200 μM, 24 h.
A short description of series [2]: In vivo pharmacokinetics after iv administration in AMI rats. Conditions: plasma concentration–time profile.
Series [3] deals with AMI rats. More on the design: species or system Sprague Dawley rats. Conditions: rat, in vivo, 50 mg/kg.

`Cc1coc2c1C(=O)C(=O)c1c-2ccc2c1CCCC2(C)C` [Free TN, tanshinone IIA]: the “in vitro cytotoxicity (in words)” value in series [1] was “obvious higher cytotoxicity than the nanocarriers in high concentrations (100 and 200 μM)”. Moreover, in series [2], the “time within which cleared from the circulation” value is listed as at most 6 h. For the same compound, in series [3], the “infarct size (percentage of whole size of the left ventricle)” value is reported as 51%±1.8%.

The values above are taken from article PMC6045899 (International Journal of Nanomedicine, 2018).
